Results on 15 molecules are retold here after PubChem BioAssay (NCI).

Test systems include HCC-2998 colon; LOX IMVI melanoma; NCI-H460 lung; PC-3 prostate; RPMI-8226 leukemia; TK-10 renal; UACC-62 melanoma; DLD-1 colon; DMS 273 small cell lung; HOP-18 NSCLC; KM20L2 colon; LXFL 529 NSCLC; M19-MEL melanoma; SNB-78 CNS; XF 498 CNS.
Common to all, as to assay: NCI tumour cell line growth inhibition, 48 h

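Five compound concentrations were applied to cells in 96-well plates for 48 hours; endpoints were derived by simple linear interpolation of the resulting dose-response curve. TGI: total growth inhibition.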

Take `CCOP(=O)(OCC)/C(C#N)=C/c1ccc(-c2ccc(F)cc2F)o1`: the TGI in the assay with HCC-2998 colon came to 27.6 µM; in the assay on LOX IMVI melanoma, 32.9 µM; with NCI-H460 lung it was 44.2 µM; in the assay with PC-3 prostate, 24.2 µM; with RPMI-8226 leukemia, 51.9 µM; in the assay on TK-10 renal it was 25.5 µM. The molecule also returned a TGI in the assay with UACC-62 melanoma of 23.4 µM.

Consider `COc1ccc(Cc2c(N)[nH]c(=O)n(C)c2=O)cc1`, for which the TGI in the assay on HCC-2998 colon, in the assay with LOX IMVI melanoma, in the assay with NCI-H460 lung, in the assay on PC-3 prostate, in the assay with RPMI-8226 leukemia and with TK-10 renal was over 100 µM throughout. Moreover, in the assay with UACC-62 melanoma, the TGI is over 100 µM.

In the case of `COc1cc(/C=C/C(=O)OC2C(O)C3CC(OC(=O)c4cc(OC)c(OC)c(OC)c4)CC2N3C)cc(OC)c1OC` (stereo not drawn), the TGI in the assay with HCC-2998 colon, in the assay on LOX IMVI melanoma, in the assay on NCI-H460 lung, in the assay on PC-3 prostate, in the assay with RPMI-8226 leukemia and with TK-10 renal was over 50 µM in each case. For the same molecule, the TGI in the assay with UACC-62 melanoma is over 50 µM.

On to `O=C1c2cc3c(cc2CC12Cc1cc4c(cc1C2=O)CCC4)CCC3`, for which the TGI in the assay with HCC-2998 colon, in the assay on LOX IMVI melanoma, with NCI-H460 lung, with PC-3 prostate, in the assay on RPMI-8226 leukemia and in the assay with TK-10 renal was over 100 µM each time. This molecule yielded a TGI in the assay with UACC-62 melanoma of over 100 µM.

Regarding `COc1cc(C[C@H]2C(=O)OC[C@@H]2Cc2ccc(OC)c(OC)c2)cc(OC)c1`, the TGI with HCC-2998 colon was over 100 µM; in the assay with LOX IMVI melanoma it was 49.5 µM; in the assay on NCI-H460 lung, over 100 µM; in the assay on PC-3 prostate, over 100 µM; in the assay on RPMI-8226 leukemia it was over 100 µM; with TK-10 renal, over 100 µM. Further, in the assay on UACC-62 melanoma, the TGI is over 100 µM.

Take `CCn1c2ccccc2c2ccc3c(c21)C(=O)c1ccccc1C3=O`: the TGI in the assay with DLD-1 colon, with DMS 273 small cell lung, with HCC-2998 colon, with HOP-18 NSCLC, in the assay with KM20L2 colon and with LXFL 529 NSCLC was over 100 µM throughout. For the same molecule, the TGI is 60.6 µM with M19-MEL melanoma; over 100 µM with RPMI-8226 leukemia; over 100 µM in the assay on SNB-78 CNS; over 100 µM with UACC-62 melanoma; over 100 µM in the assay on XF 498 CNS.

Turning to `c1cc(CSP234N5CCN2CCN3CCN4CC5)ccc1CSP123N4CCN1CCN2CCN3CC4`, the TGI was over 100 µM in the assay with HCC-2998 colon; over 100 µM in the assay on LOX IMVI melanoma; over 100 µM in the assay with NCI-H460 lung; over 100 µM with PC-3 prostate; 84.6 µM in the assay with RPMI-8226 leukemia; over 100 µM with TK-10 renal. The TGI in the assay with UACC-62 melanoma is over 100 µM.

With `C=C1CCC2CC1[C@@H](C(=O)c1c[nH]c3ccccc13)NC2(C)C` (stereo partly drawn), the TGI in the assay with HCC-2998 colon was 32.4 µM; in the assay on LOX IMVI melanoma it was over 37.5 µM; with NCI-H460 lung, over 37.5 µM; in the assay on PC-3 prostate, over 37.5 µM; in the assay with RPMI-8226 leukemia it was over 37.5 µM; with TK-10 renal, over 37.5 µM. Also, in the assay on UACC-62 melanoma, the TGI was over 37.5 µM.

For the molecule `C(=C\c1nccs1)/c1cccc(/C=C/c2nccs2)n1`, the TGI in the assay on HCC-2998 colon, in the assay with LOX IMVI melanoma, in the assay with NCI-H460 lung, in the assay with PC-3 prostate, with RPMI-8226 leukemia and in the assay on TK-10 renal was over 50 µM throughout. Moreover, the TGI in the assay on UACC-62 melanoma is over 50 µM.

As to `COc1ccc2oc(=O)cc(C)c2c1`, the TGI in the assay with HCC-2998 colon, in the assay with LOX IMVI melanoma, with NCI-H460 lung, in the assay with PC-3 prostate, in the assay on RPMI-8226 leukemia and with TK-10 renal was over 100 µM each time. The TGI in the assay on UACC-62 melanoma is over 100 µM.

As to `C=CCOC1=C(OCC=C)C(C2COC(C)(C)O2)OC1=O` (stereo not drawn), the TGI in the assay with HCC-2998 colon, in the assay with LOX IMVI melanoma, in the assay on NCI-H460 lung, in the assay on PC-3 prostate, with RPMI-8226 leukemia and in the assay on TK-10 renal was over 100 µM in each case. Moreover, in the assay with UACC-62 melanoma, the TGI is over 100 µM.

For the molecule `Cc1ccccc1NC(=O)C(=O)CC(=O)c1sc(Nc2ccccc2[N+](=O)[O-])nc1C`, the TGI in the assay with HCC-2998 colon was 59.3 µM; with LOX IMVI melanoma, over 100 µM; in the assay on NCI-H460 lung it was over 100 µM; in the assay with PC-3 prostate it was over 100 µM; in the assay with RPMI-8226 leukemia, over 100 µM; in the assay on TK-10 renal, 81.5 µM. This molecule returned a TGI in the assay on UACC-62 melanoma of 48 µM.

In the case of `COc1cc(Cl)cc(N(O)C(C)=O)c1OCc1ccccc1`, the TGI in the assay on DLD-1 colon, with DMS 273 small cell lung, with HCC-2998 colon, in the assay on HOP-18 NSCLC, with KM20L2 colon and in the assay with LOX IMVI melanoma was over 100 µM in each case. Also, the TGI in the assay on LXFL 529 NSCLC, with M19-MEL melanoma, with NCI-H460 lung, with RPMI-8226 leukemia, in the assay with SNB-78 CNS and with TK-10 renal was over 100 µM throughout. For the same molecule, the TGI in the assay with UACC-62 melanoma and with XF 498 CNS was over 100 µM throughout.

On to `COc1ccc(N(C)Sc2ccccc2)cc1`, for which the TGI in the assay on DLD-1 colon, in the assay with DMS 273 small cell lung, in the assay on HCC-2998 colon, with HOP-18 NSCLC, in the assay on KM20L2 colon and with LOX IMVI melanoma was over 100 µM in each case. For the same molecule, the TGI in the assay with LXFL 529 NSCLC, in the assay on M19-MEL melanoma, in the assay on NCI-H460 lung, in the assay on RPMI-8226 leukemia, in the assay on SNB-78 CNS and with TK-10 renal was over 100 µM throughout. Besides, the TGI is over 100 µM in the assay with UACC-62 melanoma and 96.6 µM in the assay with XF 498 CNS.

On to `CC(C)(C)[Si](C)(C)OCC1OC(n2ccc(=O)[nH]c2=O)C(O[Si](C)(C)C(C)(C)C)[C@@]12O[C@H]2C(N)=O` (stereo partly drawn), for which the TGI is over 100 µM with HCC-2998 colon; 18.1 µM in the assay with LOX IMVI melanoma; 20.4 µM in the assay with NCI-H460 lung; 17.8 µM in the assay on PC-3 prostate; over 100 µM in the assay on RPMI-8226 leukemia; 48.3 µM in the assay with TK-10 renal. The TGI in the assay with UACC-62 melanoma stood at 99.3 µM.
